# Key:
# Pol 217 = Pol 217 catalyzed primer extension: incorporation of blocked nucleotide analog into primer DNA (urea gel analysis); type: biochemical; settings: for incorporation of phosphodiester blocked nucleotides by Pol 217: nucleotide 10 μM
# Description: Pol 217 (15 μg/ml) was incubated at 30° C. in Pol buffer (50 mM TRIS pH 7.5, 0.05% Tween 20, 6 mM MgSO4, 1 mM EDTA, 50 mM NaCl) with 20 nM DNA (P21 primer annealed to Diff template AG). A time zero aliquot was taken for each concentration and then pppT3′PO4(EO2 was added at 10, 5, 2 or 1 μM final concentration to start the reaction. Tubes are incubated at 30° C. and aliquots were taken at 0.33, 0.66, 1, 2, 5, and 15 mins from the 4 reaction tubes for quenching and 15% urea acrylamide gel analysis. 1 mM dNTPs were added to the remaining 4 reaction tubes and after a further 10 mins an aliquot was taken for gel analysis (chase).
# Pol 217 was tested in Pol buffer at 55° C.
# Incorporation of gamma hexynyl-pppT3′PO4Me2 was tested in Pol buffer at 65° C. with 10 μM nucleotide and 15 μg/mlpolymerase (Pol217 or Bst). A time zero sample was removed before initiation of the reaction with nucleotide and aliquots were quenched for gel analysis at 0.33, 0.66, 1, 2, 5 and 15 minutes.
# Bst = target: T1, Bst (Geobacillus stearothermophilus, UniProt P52026); test: Bst polymerase primer extension with blocked nucleotide analog (gel analysis); type: biochemical
# T1 sequence (P52026 1-876): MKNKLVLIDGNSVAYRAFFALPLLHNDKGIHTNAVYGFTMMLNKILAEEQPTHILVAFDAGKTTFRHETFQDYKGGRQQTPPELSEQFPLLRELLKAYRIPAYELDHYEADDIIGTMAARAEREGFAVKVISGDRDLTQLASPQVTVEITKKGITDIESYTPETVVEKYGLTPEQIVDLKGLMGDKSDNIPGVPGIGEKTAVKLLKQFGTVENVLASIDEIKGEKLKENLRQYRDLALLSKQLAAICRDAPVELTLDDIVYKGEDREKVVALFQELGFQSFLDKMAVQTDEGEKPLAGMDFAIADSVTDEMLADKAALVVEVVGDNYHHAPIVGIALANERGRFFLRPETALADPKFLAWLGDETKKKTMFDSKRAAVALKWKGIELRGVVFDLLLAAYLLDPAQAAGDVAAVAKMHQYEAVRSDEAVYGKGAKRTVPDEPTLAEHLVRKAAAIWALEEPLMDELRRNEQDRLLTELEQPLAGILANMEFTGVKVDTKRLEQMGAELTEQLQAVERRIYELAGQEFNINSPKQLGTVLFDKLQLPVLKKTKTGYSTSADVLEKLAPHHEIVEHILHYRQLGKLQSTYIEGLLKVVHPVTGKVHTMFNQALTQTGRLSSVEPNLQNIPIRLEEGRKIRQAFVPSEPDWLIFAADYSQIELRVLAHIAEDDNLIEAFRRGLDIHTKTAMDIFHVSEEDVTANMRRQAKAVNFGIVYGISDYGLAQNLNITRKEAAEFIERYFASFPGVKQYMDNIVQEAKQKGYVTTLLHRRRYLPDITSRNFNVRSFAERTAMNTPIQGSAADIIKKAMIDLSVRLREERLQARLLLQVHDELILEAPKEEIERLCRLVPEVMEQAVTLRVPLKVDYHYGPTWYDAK
# Description: Incorporation of gamma hexynyl-pppT3′PO4Me2 was tested in Pol buffer at 65° C. with 10 μM nucleotide and 15 μg/mlpolymerase (Pol217 or Bst). A time zero sample was removed before initiation of the reaction with nucleotide and aliquots were quenched for gel analysis at 0.33, 0.66, 1, 2, 5 and 15 minutes. After 15 minutes, 5 μl of 100 μM dNTPs was added to the remaining reaction tubes (˜20 μl) and incubation continued for 10 mins before a chase aliquot was taken for gel analysis. Thus, for each polymerase there was a time course of 0, 0.33, 0.66, 1, 2, 5, 15 mins and chase shown from left to right across the gel in FIG. 13.
# [1] = Fluorescence emission of quencher/dye labelled nucleotide; type: physicochemical
# Description: The fluorescence emission of an approx. 4 μM solution of the quencher/dye labelled nucleotide 22, a 4 μM solution of Atto532 dye and an equimolar mixture of Atto532 dye and quencher labelled nucleotide 21 (4 μM) were measured in 10 mM Tris buffer pH 8.0, between 500 nm and 700 nm (excitation wavelength: 532 nm) (FIG. 23). The fluorescence of the nucleotide 22 was approximately 1500-fold lower than that of the free dye in solution, and approximately 1100-fold lower than the equimolar solution of the free dye and the quencher labelled nucleotide 21.
# Endonuclease IV = Endonuclease IV (Escherichia coli, UniProt P0A6C1); settings: 0.1 mM nucleotide, 500 units/mL Endonuclease IV, 37° C., pH 7.9, up to 3 days
# From the text: Aliquots were taken at set time points and analyzed by HPLC chromatography.
# E. coli EndoIV = E. coli EndoIV (Escherichia coli, UniProt P0A6C1); settings: for EndoIV removal of phosphotriester blocking moiety from primer DNA extended with the nucleotide: large quantities of E. coli EndoIV, 37° C. or 55° C., extended incubation times
# Description: Primer DNA with either a 3′ PO4PrOH block (−ve and EndoIV) or a free 3′OH (+ve) was radiolabelled and bound to an A template strand. […] Aliquots were removed at 0, 5, 15, 30 and 60 min for quenching and gel analysis (left to right respectively). “+ve” is the time course for unblocked DNA plus EndoIV, “EndoIV” is blocked DNA plus E. coli EndoIV and “−ve” is blocked DNA without E. coli EndoIV.
# Similar reactions to those described above in the context of FIG. 7 were conducted, but the blocked extension products were generated using Pol 217 to incorporate various phosphotriester nucleotides onto the primer DNA. […] Phosphotriester blocking moieties tested included pppT3′PO4(Et)2, pppT3′PO4(Et)(Pr-Cap), pppT3′PO4(Et)(PrOH), pppT3′PO4MeBu and pppT3′PO4(Et)(SSOH).
# A ^33P biotinylated 10 A template hairpin (62mer) was bound to magnetic streptavidin beads (4 pmoles) (1) and incubated with Pol217 (15 μg/ml) in Pol buffer and 10 μM pppT3′PO4MeBu for 10 mins at 55° C. […] The DNA was then removed to a magnet and washed twice in 1×B+W buffer (5 mM TRIS pH 7.5, 0.5 mM EDTA, 1M NaCl) and then washed twice in Ada buffer (50 mM TRIS pH 8.3, 1 mM EDTA, 3 mM DTT, 1 mg/ml BSA). The DNA was then incubated in Ada buffer with Ada protein (225 pmoles) at 37° C. for 3 h (3). The DNA was then removed to a magnet and washed twice in 1×B+W and then twice in NEB 3 buffer and then divided into 2 aliquots. To one aliquot (4) (2 pmoles) was added Pol 217 (15 μg/ml), E. coli EndoIV 10 U and FFT (5 μM) in NEB 3 buffer to a total volume of 100 μl. The sample was incubated at 37° C. and at time points of 0, 3, 10, 30, 60 and 120 mins a 5 μl sample was removed and quenched for 12% gel analysis. After 120 mins 10 μl of 100 μM dNTP was added to the remaining sample to chase the primer to the end (if not blocked) and an aliquot was taken and quenched after a further 20 mins at 37° C. […] The second aliquot (2 pmoles) was treated similarly, but no E. coli Endo IV was added to the reaction mixture (w/o EndoIV).
# Eight pmoles of biotinylated 10 A hairpin DNA (62mer) bound to magnetic streptavidin beads (1) was incubated with Pol 217 (15 μg/ml) in Pol buffer with 10 μM pppT3′PO4(Et)(SSOH) in 200 μl at 55° C. for 15 mins (2). Then 2 μl of 100 mM tri(hydroxylpropyl)phosphine (THP) was added to the tube and the samples incubated for a further 5 mins at 55° C. […] The DNA was then removed to a magnet and washed twice in 1×B+W and twice in NEB 3 buffer. The DNA was then divided into two aliquots. To the first aliquot (4 pmoles) was added 4 U E. coli EndoIV, 15 μg/ml Pol 217, 10 μM pppT3′PO4MeBu in 100 μl of NEB3 buffer (4) and the other aliquot (4 pmoles) had the same additions but no EndoIV (w/o EndoIV). At time points of 0, 1, 5, 10, 30, 60 and 120 mins and sample was removed and quenched for 12% gel analysis.
# Klenow = target: T2, Klenow (Escherichia coli, UniProt P00582); test: Klenow polymerase primer extension with blocked nucleotide analog (gel analysis); type: biochemical; settings: conditions tested; chase lane showed active polymerase
# T2 construct: Bst, Vent exo- and Klenow polymerases were tested
# Vent exo- = Vent exo- (Thermococcus litoralis, UniProt P30317, D141A/DEL1082-1471/DEL495-1032/E143A); test: Vent exo- polymerase primer extension with blocked nucleotide analog (gel analysis); type: biochemical; settings: conditions tested; chase lane showed active polymerase
# [2] = tested on: Pol 217, E. coli Endo IV, Ada protein; test: Single pot multi-cycle extension with Pol 217, Ada protein and Endo IV (gel); type: biochemical; settings: 37° C., 10 μM nucleotide
# Description: A tube was incubated at 37° C. containing Pol 217 (15 μg/ml-16.5 pmoles), E. coli Endo IV (10 U), Ada protein (1000 pmoles) in 100 μl of 50 mM TRIS pH 8.0, 1 mg/ml BSA, 50 mM NaCl, 10 mM MgSO4 with 2 pmoles of primer (21mer) annealed to 10 A template DNA. After a time zero aliquot was removed and quenched for gel analysis, the reaction was started by the addition of 10 μM pppT3′PO4MeBu. At time points of 10, 30, 60, 120 and 240 minutes an aliquot was removed and quenched for gel analysis. Negative controls are shown where one protein was left out of the mixture in turn. A positive control for incorporation is shown of 10 μM FFT.
# Pol 427 = Pol 427 catalyzed primer extension: incorporation of blocked nucleotide analog (gel analysis); type: biochemical; settings: Pol buffer, 37° C., 1 h, Pol 427 30 μg/ml
# [3] = approx. 4 μM, 10 mM Tris pH 8.0, excitation 532 nm
# Vent exo-, sequence (P30317 other isoform, or with tags, fused parts or gaps D141A/E143A/DEL495-1032/DEL1082-1471): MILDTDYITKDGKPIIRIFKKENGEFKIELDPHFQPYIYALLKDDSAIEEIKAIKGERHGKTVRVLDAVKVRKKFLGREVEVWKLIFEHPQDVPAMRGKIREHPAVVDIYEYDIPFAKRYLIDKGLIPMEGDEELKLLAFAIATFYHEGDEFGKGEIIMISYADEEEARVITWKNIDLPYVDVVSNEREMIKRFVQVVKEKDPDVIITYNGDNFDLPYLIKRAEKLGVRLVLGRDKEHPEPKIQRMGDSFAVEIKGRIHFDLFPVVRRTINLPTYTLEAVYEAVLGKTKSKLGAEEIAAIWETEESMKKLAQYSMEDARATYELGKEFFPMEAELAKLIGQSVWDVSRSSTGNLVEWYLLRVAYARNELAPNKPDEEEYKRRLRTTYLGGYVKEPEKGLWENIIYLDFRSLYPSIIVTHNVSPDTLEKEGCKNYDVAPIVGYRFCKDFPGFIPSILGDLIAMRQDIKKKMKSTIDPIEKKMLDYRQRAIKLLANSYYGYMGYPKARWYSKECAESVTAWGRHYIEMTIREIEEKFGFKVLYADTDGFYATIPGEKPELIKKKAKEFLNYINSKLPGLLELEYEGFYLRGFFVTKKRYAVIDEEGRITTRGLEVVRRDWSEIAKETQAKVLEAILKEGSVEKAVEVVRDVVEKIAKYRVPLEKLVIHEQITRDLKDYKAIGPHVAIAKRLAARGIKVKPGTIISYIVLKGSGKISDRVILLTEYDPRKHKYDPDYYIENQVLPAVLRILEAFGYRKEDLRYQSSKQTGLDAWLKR
# T2 sequence (P00582 324-928): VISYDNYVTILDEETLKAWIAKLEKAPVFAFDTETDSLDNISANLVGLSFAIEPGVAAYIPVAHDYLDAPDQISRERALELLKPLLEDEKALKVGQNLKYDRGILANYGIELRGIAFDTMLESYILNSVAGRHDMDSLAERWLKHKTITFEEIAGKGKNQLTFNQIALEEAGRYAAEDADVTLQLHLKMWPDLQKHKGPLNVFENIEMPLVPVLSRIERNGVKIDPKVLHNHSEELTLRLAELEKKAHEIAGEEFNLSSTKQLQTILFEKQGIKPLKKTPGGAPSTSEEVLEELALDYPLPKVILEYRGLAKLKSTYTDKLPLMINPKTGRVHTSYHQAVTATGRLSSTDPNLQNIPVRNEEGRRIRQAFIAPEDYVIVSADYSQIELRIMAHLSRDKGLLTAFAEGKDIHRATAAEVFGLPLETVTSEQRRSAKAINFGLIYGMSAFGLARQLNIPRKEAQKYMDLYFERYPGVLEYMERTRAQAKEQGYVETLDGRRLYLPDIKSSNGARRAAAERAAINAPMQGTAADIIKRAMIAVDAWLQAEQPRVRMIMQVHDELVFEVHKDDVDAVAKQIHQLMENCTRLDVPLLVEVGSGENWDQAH
molecule,measurement,setting,value
"CCOP(=O)(O)O[C@H]1C[C@H](n2cc(C)c(=O)[nH]c2=O)O[C@@H]1COP(=O)(O)OP(=O)(O)OP(=O)(O)O [pppT3′PO4Et, 5′ triphosphate 3′ (O-ethyl phosphate) thymidine]",incorporation of phosphodiester blocked nucleotides by Pol 217,"Pol 217; Pol buffer, 55° C.",low level incorporation was observed
"C#CCCCCOP(=O)(O)OP(=O)(O)OP(=O)(O)OCC1OC(n2cc(C)c(=O)[nH]c2=O)CC1OP(=O)(OC)OC (stereo not drawn) [gamma hexynyl-pppT3′PO4Me2, 5′-(γ-(5-hexynyl)triphosphate) 3′-(O,O′-dimethyl phosphate) thymidine]",incorporation by Pol 217 and chase,"Pol 217; Pol buffer, 65° C., 10 μM nucleotide, 0-15 min then dNTP chase",an incorporation band of n+1 was generated over time which did not chase away
same,band for extended primer with Bst,"Bst; Pol buffer, 65° C., 10 μM nucleotide",absent
5′-(γ-(BHQ2-peg3)triphosphate) 3′-(O-(12-aminododecyl)phosphate)thymidine [nucleotide 21],quenching of free Atto532 dye by quencher labelled nucleotide in equimolar mixture,"[1]; 4 μM each, 10 mM Tris pH 8.0, excitation 532 nm",does not quench efficiently
5′-(γ-(BHQ2-peg3)triphosphate) 3′-(O-(12-(Atto532)amidododecyl)phosphate)thymidine [nucleotide 22],fluorescence lower than that of the free dye (Atto532) in solution,[1]; [3],approximately 1500 fold
same,fluorescence lower than the equimolar solution of free dye and quencher labelled nucleotide 21,[1]; [3],approximately 1100 fold
same,quenching of fluorescence emission by BHQ2,[1]; dye and quencher both on the nucleotide,> 99%
"CCOP(=O)(O)OC1CC(n2cc(C)c(=O)[nH]c2=O)OC1COP(=O)(O)O (stereo not drawn) [pT-3′PO4Et, 5′ monophosphate T-3′PO4Et]",removal of 3′ phosphodiester blocking moiety from free nucleotide by EndoIV (HPLC),Endonuclease IV,No deblocked pT-3′PO4Et was observed even after 3 days
CCOP(=O)(OCCCO)OC1CC(n2cc(C)c(=O)[nH]c2=O)OC1COP(=O)(O)OP(=O)(O)OP(=O)(O)O (stereo not drawn) [pppT3′PO4(Et)(PrOH)],EndoIV removal of phosphotriester blocking moiety from primer DNA extended with the nucleotide,E. coli EndoIV,failed to allow subsequent incorporation
"CCOP(=O)(OCC)O[C@H]1C[C@H](n2cc(C)c(=O)[nH]c2=O)O[C@@H]1COP(=O)(O)OP(=O)(O)OP(=O)(O)O [pppT3′PO4(Et)2, 5′-triphosphate 3′-(O,O′-diethyl phosphate) thymidine]",EndoIV removal of phosphotriester blocking moiety from primer DNA extended with the nucleotide,E. coli EndoIV,failed to allow subsequent incorporation
same,extension of primer after chase with natural dNTPs (3′ block),"Pol 217; 30° C., 1 mM dNTPs chase, 10 mins",creates a 3′ blocked primer
same,incorporation into primer DNA by Pol 217 (n+1 band),"Pol 217; 30° C., Pol buffer, nucleotide 10, 5, 2 or 1 μM, 20 nM DNA, 0-15 min",extension by one base
same,time to complete incorporation by Pol217,"Pol 217; 65° C., incorporation buffer, 10 μM nucleotide",≤ 20 s
same,incorporation by Bst polymerase,"Bst; conditions tested, chase lane showed active polymerase",did not show any incorporation bands
same,incorporation by Klenow polymerase,Klenow,did not show any incorporation bands
same,incorporation by Vent exo- polymerase,Vent exo-,did not show any incorporation bands
Cc1cn(C2CC(OP(=O)(O)OCCCO)C(COP(=O)(O)OP(=O)(O)OP(=O)(O)O)O2)c(=O)[nH]c1=O (stereo not drawn) [pppT3′PO4PrOH],incorporation of phosphodiester blocked nucleotides by Pol 217,"Pol 217; Pol buffer, 55° C.",substantial incorporation was not observed
"CCCCOP(=O)(OC)O[C@H]1C[C@H](n2cc(C)c(=O)[nH]c2=O)O[C@@H]1COP(=O)(O)OP(=O)(O)OP(=O)(O)O (stereo partly drawn) [pppT3′PO4MeBu, 5′ triphosphate 3′ (O-methyl, O′-butyl phosphate) thymidine]",EndoIV unblocking of extended primer after Ada protein treatment,"E. coli EndoIV; Ada protein 37° C. 3 h, then E. coli EndoIV 10 U, Pol 217, FFT, 37° C., 0-120 mins",unblocked by EndoIV
same,EndoIV removal of phosphotriester blocking moiety from primer DNA extended with the nucleotide,E. coli EndoIV,failed to allow subsequent incorporation
same,incorporation into 10 A hairpin DNA on streptavidin beads by Pol 217,"Pol 217; Pol buffer, 55° C., 10 μM nucleotide, 10-15 mins",converted to n+1
same,"length of extension product in single pot reaction, all three proteins present",[2]; 10-240 minutes,"gradually increased over the time course from n+1 to n+2, then n+3, then n+4"
same,incorporation in single pot reaction in the absence of Ada or EndoIV,[2]; no Ada or no EndoIV,a single incorporation event occurred
Cc1cn(C2CC(OP(=O)(O)O)C(COP(=O)(O)OP(=O)(O)OP(=O)(O)O)O2)c(=O)[nH]c1=O (stereo not drawn) [pppT 3′PO4],incorporation of phosphodiester blocked nucleotides by Pol 217,"Pol 217; Pol buffer, 55° C.",incorporation was observed but the band on the gel chased away
"CCOP(=O)(OCc1cc2c(cc1[N+](=O)[O-])OCO2)O[C@H]1C[C@H](n2cc(C)c(=O)[nH]c2=O)O[C@@H]1COP(=O)(O)OP(=O)(O)OP(=O)(O)O (stereo partly drawn) [pppT3′PO4(Et)(NPIP), 5′-triphosphate 3′-(O-ethyl, O′-(6-nitropiperonyl)phosphate) thymidine]",incorporation into primer by Pol 427,Pol 427,converted to n+1
